# Test results as given in patent US20100099630A1, “Method for improving ventilatory efficiency” (priority 2004, published 2010).
# Key:
# Assay type in all cases: in vivo, human
# [1] = system: patients presenting with chronic obstructive pulmonary disease; assay: Pulmonary function during moderate sub-maximum step exercise, COPD patients; details: for VD/VT: post ribose five grams four times a day; for VD/VT / VT/RR / VCO2 / VTBTPS (tidal volume) / VT/ti (inspiratory drive): eight weeks; for VT/RR / VCO2 / VTBTPS (tidal volume) / VT/ti (inspiratory drive): post ribose
# Procedure: Four patients presenting with chronic obstructive pulmonary disease were tested for various parameters of pulmonary function as described in Example 1. Baseline measurements of pulmonary function were taken during moderate, sub-maximum step exercise. Patients were instructed to self-administer five grams of ribose four times a day. After eight weeks, pulmonary function was again measured during moderate exercise. In Table II, the units are: • VD=volume of the dead space; VT=tidal volume in liters per minute. The ratio VD/VT can be expressed as ml/ml. This ratio is taken at the nadir of sub-maximal exercise and is a measure of lung function. • VT=tidal volume in liters; RR=breaths per minute • VT=volume in ml at each inspiration, ti=inspiratory time. VT/ti is the inspiratory drive (effort) in ml/second. • VT=tidal volume in liters at constant body temperature pressure status. • VCO2=liters/minute of expired CO2 • RR=breaths per minute. VT/RR=tidal volume in liters per breath.
# [2] = system: patient at risk for COPD (No COPD); assay: Pulmonary function during moderate sub-maximum step exercise, patient without COPD; details: Patient 5, No COPD, post ribose
# Procedure: Four patients presenting with chronic obstructive pulmonary disease were tested for various parameters of pulmonary function as described in Example 1. Baseline measurements of pulmonary function were taken during moderate, sub-maximum step exercise. Patients were instructed to self-administer five grams of ribose four times a day. After eight weeks, pulmonary function was again measured during moderate exercise.
# In Table II, the units are: • VD=volume of the dead space; VT=tidal volume in liters per minute. The ratio VD/VT can be expressed as ml/ml. This ratio is taken at the nadir of sub-maximal exercise and is a measure of lung function. • VT=tidal volume in liters; RR=breaths per minute • VT=volume in ml at each inspiration, ti=inspiratory time. VT/ti is the inspiratory drive (effort) in ml/second. • VT=tidal volume in liters at constant body temperature pressure status. • VCO2=liters/minute of expired CO2 • RR=breaths per minute. VT/RR=tidal volume in liters per breath.
# Table II illustrates that no one measurement or ratio is predictive of the clinical state of COPD and response to ribose administration. […] One goal of this study was to determine whether the progression of pulmonary dysfunction in such a patient could be slowed or halted over time.
# [3] = system: patients having CHF; assay: Ventilatory efficiency during cardiopulmonary exercise testing, CHF patients
# Procedure: Ventilatory efficiency has been critically shown to be the most powerful, independent predictor of CHF patient survival. Ventilatory efficiency (VE) is determined by the linear, submax relationship between Minute Ventilation (V) and carbon dioxide output (VCO2), V being on the “y axis” and the linear slope being determined using the linear regression model, y=a+bx, “b” representing the slope. The steeper the slope, the worse the ventilation efficiency of the patient. As an exemplar cohort of patients with reduced ventilatory efficiency, patients suffering from CHF were recruited. Patients having CHF were selected according to the following criteria: • Male and female 48-84 years of age. • Ejection fraction 30-72% • NY Class III-IV (severe condition). • Test and control groups matched for pre-operative volume status, cardiac medication, measured risk assessment. The test group was administered D-ribose, 15 grams tid for eight weeks; the controls received 15 grams Dextrose tid. All patients in this group underwent repeated cardiopulmonary exercise using a four-minute sub-maximal step protocol. Patients were tested on a step apparatus. Others in the study were tested on a treadmill with varied grade or on drug-driven exercise simulation for those patients unable to use the other two devices. Symptom-limited peak exercise performance with at least 80-85% of age related maximal heart rate was attempted with each patient. Upper extremity blood pressure was obtained at every two minutes and also at peak exercise. Patients were tested on a treadmill with varying grade, on a step apparatus or with simulated drug-driven exercise simulation for those patients unable to exercise physically. VCO2 and VO2max before and after exercise was measured and VE calculated. The methodology is described in Circulation: www.circulationaha.org Ponikowski et al. Ventilation in Chronic Heart Failure, Feb. 20, 2001, the teachings of which are incorporated by reference. Ventilatory efficiency, VO2 and O2 pulse were assessed up to the anaerobic threshold at baseline and again at eight weeks. Weber function class was also determined based on VO2 at the anaerobic threshold (AT). The results for the first group of test patients (2 females and 13 males) are summarized in Table I. “R” designates D-ribose. Each patient acted as his or her control, that is, results after ribose administration were compared to baseline results. VO2 efficiency is the O2 uptake per unit time. O2 pulse is a measurement of the heart stroke volume.
# [4] = system: representative patients (coronary artery disease / CHF cohort); assay: Exercise testing of representative individual patients (treadmill, step test, drug-driven simulated exercise)
# Procedure: Patients were tested on a treadmill with varying grade, on a step apparatus or with simulated drug-driven exercise simulation for those patients unable to exercise physically. VCO2 and VO2max before and after exercise was measured and VE calculated. The methodology is described in Circulation: www.circulationaha.org Ponikowski et al. Ventilation in Chronic Heart Failure, Feb. 20, 2001, the teachings of which are incorporated by reference. Ventilatory efficiency, VO2 and O2 pulse were assessed up to the anaerobic threshold at baseline and again at eight weeks. Weber function class was also determined based on VO2 at the anaerobic threshold (AT). The results for the first group of test patients (2 females and 13 males) are summarized in Table I. “R” designates D-ribose. Each patient acted as his or her control, that is, results after ribose administration were compared to baseline results. VO2 efficiency is the O2 uptake per unit time. O2 pulse is a measurement of the heart stroke volume. A person, normal weight, was diagnosed with blockage of the coronary arteries with stable angina, not yet progressing to congestive heart failure. […] Using a treadmill, with incremental increase in grade, their VO2 max and VCO2 were determined. Following eight weeks of ribose administration of five grams four times a day, they were retested under the same conditions. Plotting a regression analysis of VO2 versus log V, the VE slope decreased from 60.2 to 45.5. It is considered that a slope of 36.9 or below indicates impairment of ventilatory efficiency. Therefore, while this patient was not in the normal range of ventilatory efficiency, improvement was marked. A second patient, a person of normal weight, self administered five grams of ribose four times a day for eight weeks. At the beginning of the study, their VE slope was 55.7 following nine minutes of submaximal exercise. At the end of the study, their VE slope had decreased to 45.2. This patient also was tested on the step test. The initial test was rated as “good” and the second test was subjectively considered to be “great.” A third patient, an obese person, was on nasal oxygen and was tested with drug-driven simulated exercise. […] Although their VE was now in the normal range, the test results, although improved were not subjectively rated as “good”.
# [5] = system: patient with rheumatoid lung; assay: Ventilatory efficiency in rheumatoid lung, case report; details: person, ribose approximately five grams two to three times a day, within a month
# Description: A person developed rheumatoid arthritis in the 1970's. By 1988, they began to show symptoms of rheumatoid lung, began the use of rescue inhalers such as Albuterol® inhaler and was hospitalized for respiratory distress three times in the next five years. At that point, they were prescribed Advair® steroid inhaler, which relieved their symptoms considerably, although they still required a rescue inhaler several times per week. In 2002, they began the administration of ribose, approximately five grams two to three times a day.
# [6] = FIG. 2, single patient, after eight weeks of ribose supplementation, during exercise
compound,measurement,setting,value
O=C[C@H](O)[C@H](O)[C@H](O)CO [D-ribose],slope of respiratory rate plotted against tidal volume,"[1]; FIG. 1, single patient, after eight weeks of ribose supplementation",decreased slope
same,VE value,[1]; [6],42 L/min
same,tidal volume,[1]; [6],0.9 L
same,VD/VT,"[1]; Patient 1 (asthmatic with COPD), nadir of sub-maximal exercise, baseline 0.304",0.253 ml/ml
same,VT/RR,"[1]; Patient 1, baseline 0.059",0.065 liters per breath
same,VCO2,"[1]; Patient 1, baseline 1.038",1.050 L/min
same,VTBTPS (tidal volume),"[1]; Patient 1, baseline 1.54",1.92 L
same,VT/ti (inspiratory drive),"[1]; Patient 1, baseline 1492",1827 mL/s
same,VD/VT,"[1]; Patient 2 (COPD), baseline 0.439",0.303 ml/ml
same,VT/RR,"[1]; Patient 2, baseline 0.036",0056 liters per breath
same,VCO2,"[1]; Patient 2, baseline 0.460",0.460 L/min
same,VTBTPS (tidal volume),"[1]; Patient 2, baseline 0.830",1.04 L
same,VT/ti (inspiratory drive),"[1]; Patient 2, baseline 779",752 mL/s
same,VD/VT,"[1]; Patient 3 (COPD), baseline 0.198",0.221 ml/ml
same,VT/RR,"[1]; Patient 3, baseline 0.041",0.046 liters per breath
same,VCO2,"[1]; Patient 3, baseline 0.280",0.454 L/min
same,VTBTPS (tidal volume),"[1]; Patient 3, baseline 0.614",0.873 L
same,VT/ti (inspiratory drive),"[1]; Patient 3, baseline 373",706 mL/s
same,VD/VT,"[1]; Patient 4 (COPD), baseline 0.475",0.280 ml/ml
same,VT/RR,"[1]; Patient 4, baseline 0.013",0.018 liters per breath
same,VCO2,"[1]; Patient 4, baseline 0.310",0.814 L/min
same,VTBTPS (tidal volume),"[1]; Patient 4, baseline 0.550",0.800 L
same,VT/ti (inspiratory drive),"[1]; Patient 4, baseline 937",1590 mL/s
same,VT/RR,[2]; baseline 0.090,0.100 liters per breath
same,VD/VT,[2]; baseline 0.212,0.221 ml/ml
same,VCO2,[2]; baseline 0.990,1.26 L/min
same,VTBTPS (tidal volume),[2]; baseline 1.90,2.40 L
same,VT/ti (inspiratory drive),[2]; baseline 1636,2232 mL/s
same,VO2 uptake efficiency,"[3]; Post-R: D-ribose 15 grams tid for eight weeks, 2 females and 13 males, Pre-R 1.00 +/− 0.28, p < 0.028",1.30 +/− 0.28
same,O2 pulse,"[3]; Post-R: D-ribose 15 grams tid for eight weeks, 2 females and 13 males, Pre-R 7.45 +/− 1.8, p < 0.05",9.04 +/− 1.9
same,Ventilatory efficiency,"[3]; Post-R: D-ribose 15 grams tid for eight weeks, 2 females and 13 males, up to anaerobic threshold, Pre-R 50.6 +/− 9.8, p < 0.01",41.6 +/− 6.4
same,improvement of VE,[3]; after eight weeks of D-ribose versus baseline,about 20%
same,Weber functional class,"[3]; based on VO2 at the anaerobic threshold, several of the patients, after eight weeks","reclassified into a higher, that is, less severe, Weber functional class"
same,VE slope,"[4]; obese person on nasal oxygen, drug-driven simulated exercise, ribose five grams four times daily, eight weeks, baseline 63.0",35.2
same,need for nasal oxygen,"[4]; obese person, ribose five grams four times daily, eight weeks",able to discontinue the oxygen
same,time of simulated exercise,"[4]; obese person, ribose five grams four times daily, eight weeks, baseline 7.43 minutes",11.44 min
same,VE slope,"[4]; person, coronary artery blockage with stable angina, treadmill, ribose five grams four times a day, eight weeks, baseline 60.2",45.5
same,VE slope,"[4]; person, nine minutes of submaximal exercise, ribose five grams four times a day, eight weeks, baseline 55.7",45.2
same,step test subjective rating,"[4]; person, second test after eight weeks of ribose, initial test rated good",great
same,use of rescue inhaler and exercise tolerance,[5],able to discontinue the use of the rescue inhaler and to exercise more without breathlessness symptoms
